Read-outs that look alike come from different tables or passages of the source.
Experiments:
[1] = biological target: T1, Renilla luciferase (RLuc) (Renilla reniformis, UniProt P27652); assay: RLuc enzymatic assay (purified enzyme, qHTS, 1536-well); assay type: biochemical; conditions: 1 nM RLuc, 5 µM coelenterazine-H
T1 sequence (P27652 1-311): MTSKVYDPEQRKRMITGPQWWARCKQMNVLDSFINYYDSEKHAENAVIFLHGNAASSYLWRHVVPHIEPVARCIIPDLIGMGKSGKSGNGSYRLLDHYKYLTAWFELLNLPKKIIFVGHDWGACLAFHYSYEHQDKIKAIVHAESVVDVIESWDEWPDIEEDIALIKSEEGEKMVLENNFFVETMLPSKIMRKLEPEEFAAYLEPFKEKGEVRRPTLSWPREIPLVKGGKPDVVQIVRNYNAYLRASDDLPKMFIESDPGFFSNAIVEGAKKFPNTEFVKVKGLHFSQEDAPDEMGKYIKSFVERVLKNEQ
Method: (§1) 1 µL of purified luciferase was then dispensed into each well for final concentrations 10 nM FLuc or 1 nM RLuc. The bioluminescence outputs were measured by an EnVision reader (PerkinElmer, Wellesley, MA). Due to the relatively short luminescence duration of the RLuc assay, dispense time constants were set to match closely to the read time of the plate reader. As a result, each individual well was read with approximately the same time delay from reagent dispense to signal acquisition. See Table 1 for the 1536-well assay protocols.
(§2) Data from each assay was normalized plate-wise to corresponding intraplate controls as described previously, [17]. The same control data sets were also used for the calculation of Z′ factors from each assay. In all assays, wells containing DMSO were used as no-response controls. For the FLuc enzymatic assay, each compound-treated well on the plate was normalized to the average readings of n = 24 PTC124 treated wells and n = 48 DMSO wells from the same plate. Wells were scaled to a full range of DMSO and zero, and then normalized using the maximum response observed in the screen as 100% activity. For the RLuc enzymatic assay, n = 24 BTS treated wells for the positive control, n = 48 DMSO. MSR values were calculated using the cumulative potency differences of the de-interleaved duplicate control titrations from each plate as previously described. The normalized data from each assay plate set was corrected using DMSO-only treated assay plates read at the start and end of each assay run, and the resulting inter-plate titration data fit, using in-house software, to the standard Hill equation and dose-response curves automatically classified as described previously.
(§3) The curve classification scheme for assignment of resulting curve-fit data into CRC classes was according to Inglese et al. as follows: class 1 curves (far left) display two asymptotes, an inflection point, and r^2≥0.9; subclasses 1a vs. 1b are differentiated by full (>80%) vs. partial (≤80%) response. Class 2 curves (second from left) display a single left-hand asymptote and inflection point; subclasses 2a (or 2.1) and 2b (2.2) are differentiated by a max response and r^2, >80% and >0.9 or <80% and <0.9, respectively. Class 3 curves (second from right) have a single left-hand asymptote, no inflection point, and a response >3SD from the mean activity of the sample field.

VEGFR2 = conditions: ref Harris, P.A., et al. 2005; read-out: PKI IC50 (µM), VEGFR2; cited from earlier work
[2] = biological target: firefly luciferase, Photinus pyralis (FLuc) (Photinus pyralis, UniProt P08659); assay: biochemical; assay type: biochemical; conditions: for FLuc Parameters Hill Coef: Hill equation fit of CRC; for Emax: response relative to PTC124 control inhibitor, negative = inhibition, read-out: FLuc Parameters Efficacy
Chain of firefly luciferase, Photinus pyralis (FLuc) (P08659 whole entry): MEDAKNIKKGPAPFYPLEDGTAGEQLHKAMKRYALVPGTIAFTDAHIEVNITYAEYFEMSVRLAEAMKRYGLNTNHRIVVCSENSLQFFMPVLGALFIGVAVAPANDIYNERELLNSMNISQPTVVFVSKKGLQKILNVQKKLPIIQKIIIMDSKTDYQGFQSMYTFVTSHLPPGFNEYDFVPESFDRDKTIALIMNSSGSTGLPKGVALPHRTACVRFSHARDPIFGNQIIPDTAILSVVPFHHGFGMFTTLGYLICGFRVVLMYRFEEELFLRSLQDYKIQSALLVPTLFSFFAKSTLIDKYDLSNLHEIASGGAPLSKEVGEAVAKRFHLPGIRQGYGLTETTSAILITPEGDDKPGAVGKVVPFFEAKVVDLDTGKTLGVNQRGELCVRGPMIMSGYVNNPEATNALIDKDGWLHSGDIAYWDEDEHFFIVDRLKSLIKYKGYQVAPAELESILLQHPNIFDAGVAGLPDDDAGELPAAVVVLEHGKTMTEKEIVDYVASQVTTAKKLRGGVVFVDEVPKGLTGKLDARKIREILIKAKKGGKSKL
Method: as §1, with “The” for “1 µL of purified luciferase was then dispensed into each well for final concentrations 10 nM FLuc or 1 nM RLuc. The”
as §2, §3

CDK = test system: CDK; parameters: method as in Stevens, K. L., et al. 2008; conditions: ref Stevens, K. L., et al. 2008; read-out: PKI IC50 (µM), CDK; cited from earlier work
[3] = 10 nM FLuc, 10 µM D-luciferin, 10 µM ATP, read-out: FLuc Parameters IC50

Compound	RLuc Curve Class [1]	IC50 (VEGFR2) [µM]	IC50 [2, 3] [nM]	FLuc Parameters Hill Coef [2]	IC50 ([2]; Table 3, read-out: FLuc IC50) [nM]	Emax [2] [%]	IC50 (CDK) [µM]	IC50 ([2]; Figure 2b, representative structures of clusters, read-out: FLuc IC50) [nM]
COc1ccccc1Nc1ncc(-c2ccccc2)o1 [GW577921A]	4	0.38	1030	1	1030	102		
c1cc(-c2cnn3nc(N4CCOCC4)ccc23)nc(NC2CC2)n1 [GW708336X]	4		4610	1	4610	108	0.4	5000
